The text below walks through data of patent US8389557B2, “Triazole derivatives useful as Axl inhibitors” (Rigel Pharmaceuticals, Inc., priority 2005, dated 2013).

This experiment addresses T1, Axl (Homo sapiens, UniProt P30530).
T1 construct: endogenous in cells; host or cells: HeLa cells
T1 sequence (P30530 26-894): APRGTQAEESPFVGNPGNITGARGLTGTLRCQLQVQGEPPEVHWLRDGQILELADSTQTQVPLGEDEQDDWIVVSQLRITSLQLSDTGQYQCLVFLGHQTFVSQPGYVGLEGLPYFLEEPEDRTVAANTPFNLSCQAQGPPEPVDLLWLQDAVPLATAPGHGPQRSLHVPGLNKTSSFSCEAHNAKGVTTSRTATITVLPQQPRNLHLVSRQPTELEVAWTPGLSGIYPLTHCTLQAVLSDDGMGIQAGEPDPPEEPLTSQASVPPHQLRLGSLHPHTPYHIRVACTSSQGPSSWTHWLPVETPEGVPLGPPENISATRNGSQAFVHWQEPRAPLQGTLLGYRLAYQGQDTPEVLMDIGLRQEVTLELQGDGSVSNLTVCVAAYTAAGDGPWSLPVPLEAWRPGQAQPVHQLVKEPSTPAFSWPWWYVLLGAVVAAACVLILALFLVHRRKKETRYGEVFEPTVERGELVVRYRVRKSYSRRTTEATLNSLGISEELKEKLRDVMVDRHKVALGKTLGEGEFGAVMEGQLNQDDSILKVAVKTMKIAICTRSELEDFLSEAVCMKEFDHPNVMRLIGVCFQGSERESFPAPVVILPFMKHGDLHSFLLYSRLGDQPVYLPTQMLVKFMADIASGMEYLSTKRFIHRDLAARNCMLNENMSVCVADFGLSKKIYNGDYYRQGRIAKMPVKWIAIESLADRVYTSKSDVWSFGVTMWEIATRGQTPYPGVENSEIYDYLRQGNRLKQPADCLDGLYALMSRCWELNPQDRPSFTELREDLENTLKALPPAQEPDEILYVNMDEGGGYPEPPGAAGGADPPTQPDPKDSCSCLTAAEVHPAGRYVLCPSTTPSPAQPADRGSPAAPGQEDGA
The experiment is described as follows: Phospho-Akt in-cell Western assay (inhibition of Axl activity). The experiment is classed as cell-based. The procedure, abridged: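 HeLa cells on poly-L-lysine, starved 24 h in 0.5% FCS DMEM with Axl/Fc 500 ng/mL, pre-treated with compound 1 h at 37° C. Axl stimulated 5 min by anti-Axl/anti-mouse antibody cross-linking. Fixed cells probed with anti-phospho-Akt and HRP secondary, chemiluminescence read.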

The mark [1] stands for this setting: inhibition of Axl activity, phospho-Akt in-cell Western assay, Table 1.
The mark [2] stands for this setting: inhibition of Axl activity, Table 1.
Setting [3] is: Table 3, Hela cells, Axl antibody cross-linking stimulation, phospho-Akt chemiluminescence.
[4] abbreviates: Table 5, Hela cells, Axl antibody cross-linking stimulation, phospho-Akt chemiluminescence.

For orientation: IC50 means the concentration that inhibits the measured activity by half. Higher therefore signals lower potency. Under setting [1], `CC(C)(C)c1ccc(C(=O)n2nc(Nc3ccc(OCCN4CCCCCC4)cc3)nc2N)cc1` [compound 320, 5-amino-1-(4-(tert-butyl)phenyl)carbonyl-3-[4-[2-(azepan-1-yl)ethoxy]phenylamino]-1H-1,2,4-triazole] showed an IC50 of less than 1000 nM. Same read-out and setting: to `CC(C)(C)OC(=O)Nc1ccc(C(=O)n2nc(Nc3ccc(OCCN4CCCC4)cc3)nc2N)cc1` [compound 270, 5-amino-1-(4-(tert-butoxycarbonylamino)phenyl)carbonyl-3-[4-[2-(pyrrolidin-1-yl)ethoxy]phenylamino]-1H-1,2,4-triazole] belongs less than 1000 nM. `Nc1nc(Nc2ccc3c(c2)OCCO3)nn1C(=O)c1cccc(OCc2ccccc2)c1` [compound 156, 5-amino-1-(3-(benzyloxy)phenyl)carbonyl-3-(1,4-benzodioxan-6-yl)amino-1H-1,2,4-triazole] came in with an IC50 under setting [2] of 10000 to 20000 nM. Turning to `CC(C)(C)Oc1ccc(C(=O)n2nc(Nc3ccc(OCCN4CCCC4)cc3)nc2N)cc1` [compound #1, 5-Amino-3-[4-[2-(pyrrolidin-1-yl)ethoxy]phenylamino]-1-(4-(tert-butoxy)phenyl)carbonyl-1H-1,2,4-triazole], the IC50 under setting [1] is less than 1000 nM. Under setting [1], `CC(C)(C)Oc1ccc(C(=O)n2nc(Nc3ccc(OCCN4CCCCCC4)cc3)nc2N)cc1` [compound 322, 5-amino-1-(4-(tert-butoxy)phenyl)carbonyl-3-[4-[2-(azepan-1-yl)ethoxy]phenylamino]-1H-1,2,4-triazole] yielded an IC50 of less than 1000 nM.

As to `Nc1nc(Nc2ccc(N3CCOCC3)cc2)nn1C(=O)c1cccc(O)c1` [compound 67, 5-amino-1-(3-(hydroxy)phenyl)carbonyl-3-(4-(morpholin-4-yl)phenylamino)-1H-1,2,4-triazole], under setting [2], the IC50 was 1000 to 10000 nM. As for `COc1cc(Nc2nc(N)n(C(=O)c3ccc(OC(C)(C)C)cc3)n2)ccc1OCCN1CCCC1` [compound 317, 5-amino-1-(4-(tert-butoxy)phenyl)carbonyl-3-[3-methoxy-4-[2-(pyrrolidin-1-yl)ethoxy]phenylamino]-1H-1,2,4-triazole], under setting [1], the IC50 was less than 1000 nM. Turning to `Nc1nc(Nc2ccc(OCCN3CCCC3)cc2)nn1C(=O)c1ccc2cc[nH]c2c1` [compound #5, 5-Amino-1-(1H-indol-6-yl)carbonyl-3-[4-[2-(pyrrolidin-1-yl)ethoxy]phenylamino]-1H-1,2,4-triazole], the IC50 under setting [3] was less than 1000 nM. As to `Cc1cccc(C(=O)n2nc(Nc3ccc4cn[nH]c4c3)nc2N)c1` [compound 160, 5-amino-3-(indazol-6-yl)amino-1-(3-(methyl)phenyl)carbonyl-1H-1,2,4-triazole], the IC50 under setting [4] was 1000 to 10000 nM. Turning to `Nc1nc(Nc2ccc(Cl)cc2)nn1C(=O)c1ccc(Cl)cc1` [compound 217, 5-amino-3-(4-chlorophenyl)amino-1-(4-chlorophenyl)carbonyl-1H-1,2,4-triazole], under setting [2], the IC50 was more than 20000 nM.

Turning to `CC(C)c1ccc(C(=O)n2nc(Nc3ccc(OCCN4CCCCC4)cc3)nc2N)cc1` [compound 51, 5-amino-1-(4-(iso-propyl)phenyl)carbonyl-3-[4-[2-(piperidin-1-yl)ethoxy]phenylamino]-1H-1,2,4-triazole], under setting [2], the IC50 was less than 1000 nM. The compound `Nc1nc(Nc2ccc(OCCn3ccnc3)cc2)n(C(=O)c2ccc3sccc3c2)n1` [compound 378, 3-amino-1-(benzo[b]thiophen-5-yl)carbonyl-5-[4-[2-(imidazol-1-yl)ethoxy]phenylamino]-1H-1,2,4-triazole] showed an IC50 (Table 4, Hela cells, Axl antibody cross-linking stimulation, phospho-Akt chemiluminescence) of less than 1000 nM. `CSc1ccc(C(=O)n2nc(Nc3ccc4c(c3)OCCO4)nc2N)cc1` [compound 237, 5-amino-3-(1,4-benzodioxan-6-yl)amino-1-(4-thiomethylphenyl)carbonyl-1H-1,2,4-triazole] came in with an IC50 under setting [2] of 1000 to 10000 nM. On to `Nc1nc(Nc2ccc(OCCN3CCCC3)cc2)nn1C(=O)c1ccc2nn[nH]c2c1` [compound 281, 5-amino-1-(1H-benzo[d][1,2,3]triazol-5-yl)carbonyl-3-[4-[2-(pyrrolidin-1-yl)ethoxy]phenylamino]-1H-1,2,4-triazole], for which the IC50 under setting [3] lay in the range of 10000 to 20000 nM. Compound `CC(C)(C)c1ccc(C(=O)n2nc(Nc3ccc(OCCN4CCCC4)cc3)nc2N)cc1` [compound 302, 5-amino-1-(4-(tert-butyl)phenyl)carbonyl-3-[4-[2-(pyrrolidin-1-yl)ethoxy]phenylamino]-1H-1,2,4-triazole] yielded an IC50 under setting [1] of less than 1000 nM. Turning to `Nc1nc(Nc2ccc(OCCN3CCCCC3)cc2)n(C(=O)Nc2ccc3c(c2)OCO3)n1` [compound 193, 3-amino-N-(1,3-benzodioxol-5-yl)-5-[4-[2-(piperidin-1-yl)ethoxy]phenylamino]-1H-1,2,4-triazole-1-carboxamide], the IC50 (Table 8, Hela cells, Axl antibody cross-linking stimulation, phospho-Akt chemiluminescence) is 1000 to 10000 nM. As to `CC(C)(C)Oc1ccc(C(=O)n2nc(N)nc2Nc2ccc(N3CCCC3)cc2)cc1` [compound 292, 3-amino-1-(4-(tert-butoxy)phenyl)carbonyl-5-(4-(pyrrolidin-1-yl)phenylamino]-1H-1,2,4-triazole], the IC50 (Table 2, Hela cells, Axl antibody cross-linking stimulation, phospho-Akt chemiluminescence) was more than 20000 nM. For the compound `Nc1nc(Nc2ccc(N3CCOCC3)cc2)nn1C(=O)c1ccc(S(N)(=O)=O)cc1` [compound 70, 5-amino-1-(4-(aminosulfonyl)phenyl)carbonyl-3-(4-(morpholin-4-yl)phenylamino)-1H-1,2,4-triazole], the IC50 under setting [2] is more than 20000 nM. Same read-out and setting: to `CN(C)c1ccc(C(=O)n2nc(Nc3ccc4c(c3)OCCO4)nc2N)cc1` [compound 247, 5-amino-1-[(4-dimethylamino)phenyl]carbonyl-3-(1,4-benzodioxan-6-yl)amino-1H-1,2,4-triazole] belongs 1000 to 10000 nM. `Nc1nc(Nc2ccc(OCCN3CCCCC3)cc2)nn1C(=O)Nc1ccc2c(c1)OCO2` [compound 35, 5-amino-N-(1,3-benzodioxol-5-yl)-3-[4-[2-(piperidin-1-yl)ethoxy]phenylamino]-1H-1,2,4-triazole-1-carboxamide] registered an IC50 (Table 7, Hela cells, Axl antibody cross-linking stimulation, phospho-Akt chemiluminescence) of 1000 to 10000 nM.

In turn, `COc1ccc(C(=O)n2nc(Nc3ccc4c(c3)OCCO4)nc2N)cc1C` [compound 257, 5-amino-3-(1,4-benzodioxan-6-yl)amino-1-(3-methyl-4-methoxy)phenylcarbonyl-1H-1,2,4-triazole] showed an IC50 under setting [2] of 1000 to 10000 nM. Under setting [4], `Cc1cccc(C(=O)n2nc(Nc3ccc4[nH]ncc4c3)nc2N)c1` [compound 154, 5-amino-3-(indazol-5-yl)amino-1-(3-(methyl)phenyl)carbonyl-1H-1,2,4-triazole] came in with an IC50 of 1000 to 10000 nM.

Under setting [4], `Cc1cccc(C(=O)n2nc(Nc3ccc4[nH]c(C)cc4c3)nc2N)c1` [compound 255, 5-amino-3-(1H-2-methyl-indol-5-yl)amino-1-(3-methylphenyl)carbonyl-1H-1,2,4-triazole] came in with an IC50 of 1000 to 10000 nM. As for `Nc1nc(Nc2ccc(OCCN3CCCC3)c(F)c2)nn1C(=O)c1ccc(-c2csnn2)cc1` [compound 306, 5-amino-1-(4-(1,2,3-thiadiazol-4-yl)phenyl)carbonyl-3-[3-fluoro-4-[2-(pyrrolidin-1-yl)ethoxy]phenylamino]-1H-1,2,4-triazole], the IC50 under setting [1] was less than 1000 nM. On the same count and under the same terms, with `Nc1nc(Nc2ccc(OCCN3CCCC3)cc2)nn1C(=O)c1ccc(-n2ccnc2)cc1` [compound 268, 5-amino-1-(4-(imidazol-1-yl)phenyl)carbonyl-3-[4-[2-(pyrrolidin-1-yl)ethoxy]phenylamino]-1H-1,2,4-triazole] the figure was less than 1000 nM. Regarding `CS(=O)(=O)N1CCC(Nc2nc(N)n(C(=O)c3ccc(N4CCOCC4)cc3)n2)CC1` [compound 399, 5-amino-1-(4-(morpholin-4-yl)phenyl)carbonyl-3-(1-methylsulfonylpiperidin-4-yl)amino-1H-1,2,4-triazole], the IC50 under setting [4] is more than 20000 nM.

For `COc1c(F)cc(C(=O)n2nc(Nc3ccc(OCCN4CCCC4)cc3)nc2N)cc1F` [compound 390, 5-amino-1-(3,5-difluoro-4-methoxyphenyl)carbonyl-3-[4-[2-(pyrrolidin-1-yl)ethoxy]phenylamino]-1H-1,2,4-triazole], under setting [1], the IC50 is less than 1000 nM. Under setting [2], `Nc1nc(Nc2ccc(N3CCOCC3)cc2)nn1C(=O)c1cccc([N+](=O)[O-])c1` [compound 72, 5-amino-3-(4-(morpholin-4-yl)phenylamino)-1-(3-(nitro)phenyl)carbonyl-1H-1,2,4-triazole] had an IC50 of 1000 to 10000 nM. In turn, `Cc1cccc(C(=O)n2nc(Nc3cccc(OCC(=O)OC(C)(C)C)c3)nc2N)c1` [compound 221, 5-amino-1-(3-methylphenyl)carbonyl-3-[(3-tert-butoxycarbonylmethoxy)phenyl]amino-1H-1,2,4-triazole] yielded an IC50 under setting [2] of 1000 to 10000 nM.
